Measurements: patent US20070202054A1, “Inhalant Formulation Containing Sulfoalkyl Ether Cyclodextrin and Corticosteroid” (priority 2003, published 2007)
Each block holds one compound with its values, some of them ahead of it.

Legend:
[1] = Viscosity of SAE-CD solutions (cone and plate viscometer); format: physicochemical; details: 25 C.
Procedure: The performance of an inhalable solution of the invention in a nebulizer may depend upon the viscosity of the solution in its reservoir, the nebulization solution. Viscosity of the inhalable composition can have an impact on percentage of nebulization composition emitted from a nebulizer, output rate of nebulized corticosteroid and droplet size distribution.
The viscosity of aqueous solutions containing SAE-CD were measured using a cone and plate viscometer.
A Brookfield Programmable DV-III+ Rheometer, CPE-40 cone and CPE 40Y plate (Brookfield Engineering Laboratories, Middleboro, Mass.) was used to make measurements on 0.5 ml samples at 1, 2, 3, 5 and 10 rpm. Samples were sheered for approximately 5 revolutions prior to each measurement. This allowed accurate rheological characterization of the samples. The temperature of all samples was equilibrated to 25±1 degree centigrade using a double wall viscometer cone supplied with water from an electronically controlled thermostatic circulating water bath (Model, 8001, Fisher Scientific, Pittsburgh, Pa.). The viscometer was calibrated using 5 and 50 centipoise using silicon oil calibration standards. Viscosity measurements were made at 5 or more rotation speeds to look for sheer thinning behavior (viscosities that decrease as the rate of sheer increases). Higher rotation speeds result in increased rates of sheer.

red blood cells = details: concentrations typically used to solubilize pharmaceutical formulations; cited from earlier work
[2] = Density of CAPTISOL solutions (pycnometer); format: physicochemical; details: 25° C.
Procedure: The concentration of SAE-CD in solution can be expressed on a weight to weight or weight to volume basis; however, these two units are interconvertible. When a known weight of cyclodextrin is dissolved in a known weight of water, the % w/w cyclodextrin concentration is determined by dividing the cyclodextrin weight in grams by the total weight (cyclodextrin+water weight) in like units and multiplying by 100. When a known weight of cyclodextrin is dissolved to a known total volume, the % w/v cyclodextrin concentration is determined by dividing the cyclodextrin weight in grams by the total volume in milliliters and multiplying by 100. The correlation between the two cyclodextrin concentration percentages was experimentally determined by preparing various % w/w cyclodextrin solutions and measuring the density of each with a pycnometer at 25° C.

[3] = human, in vivo; cited from earlier work
[4] = format: physicochemical
Procedure: The phase solubility binding curve for Salmeterol xinafoate and budesonide was determined as described herein, and the approximate equilibrium binding constant (Ki) of each with CAPTISOL was determined. […] The molar ratio of CAPTISOL to Salmeterol xinafoate at saturated solubility was about 3.2 under the test conditions used. Their may be a reduction in the amount of budesonide solubilized by CAPTISOL in the presence of Salmeterol xinafoate; however, clear aqueous liquid solution formulations comprising therapeutically effective amounts of budesonide and Salmeterol xinafoate were prepared.

Density ([2]; Captisol 8.5 % w/w): 1.041 g/mL | Density ([2]; Captisol 29.8 % w/w): 1.149 g/mL | Density ([2]; Captisol 39.7 % w/w): 1.202 g/mL | Density ([2]; Captisol 49.4 % w/w): 1.259 g/mL | Density ([2]; Captisol 59.4 % w/w): 1.320 g/mL | Density ([2]; Captisol […] w/w): 1.095 g/mL
Compound: Sulfobutyl Ether-β-Cyclodextrin [Captisol]
Viscosity ([1]; Captisol 8.5 % w/w): 1.75 Cp | Viscosity ([1]; Captisol 29.8 % w/w): 5.91 Cp | Viscosity ([1]; Captisol 39.7 % w/w): 17.0 Cp | Viscosity ([1]; Captisol 49.4 % w/w): 51.9 Cp | Viscosity ([1]; Captisol 59.4 % w/w): 527.0 Cp | Viscosity ([1]; Captisol […] w/w): 2.78 Cp | hemolytic behavior (red blood cells): essentially no hemolytic behavior

Compound: CCNC(=O)[C@@H]1CCCN1C(=O)[C@H](CCCNC(=N)N)NC(=O)[C@H](CC(C)C)NC(=O)[C@@H](CC(C)C)NC(=O)[C@H](Cc1ccc(O)cc1)NC(=O)[C@H](CO)NC(=O)[C@H](Cc1c[nH]c2ccccc12)NC(=O)[C@H](Cc1c[nH]cn1)NC(=O)[C@@H]1CCC(=O)N1 [leuprolide acetate]
mean bioavailability [3]: 6.6%

approximate equilibrium binding constant (Ki) with CAPTISOL [4]: approximately 3,500 | molar ratio of CAPTISOL to drug at saturated solubility [4]: about 3.2
Compound: OCc1cc(C(O)CNCCCCCCOCCCCc2ccccc2)ccc1O (centres unmarked) [Salmeterol xinafoate]

approximate equilibrium binding constant (Ki) with CAPTISOL [4]: ~600
Compound: CCCC1O[C@@H]2C[C@H]3[C@@H]4CCC5=CC(=O)C=C[C@]5(C)[C@H]4[C@@H](O)C[C@]3(C)[C@]2(C(=O)CO)O1 (stereo partly drawn) [Budesonide, (R,S)-11β,16α,17,21-tetrahydroxypregna-1,4-diene-3,20-dione cyclic 16,17-acetal with butyraldehyde]
